Data from patent publication US7635572B2, “Methods for conducting assays for enzyme activity on protein microarrays” (Life Technologies Corporation, priority 2004, dated 2009).
Read-outs that look alike come from different tables or passages of the source.

How the values were obtained:
[1] = target: plurality of kinases (Table 5) (Homo sapiens, UniProt P11309); assay: Further analysis of a plurality of inhibitors and a plurality of kinases on microarray (Example IX, Table 5); format: biochemical;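 further: inhibition of each kinase by the inhibitors is given as a qualitative level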;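 on Inhibition level, ITK: level 0 none or unclear then 1 little or marginal then 2 substantial inhibition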;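 on Inhibition level, PIM1: level 0 no or unclear inhibition to Level 2 substantial inhibition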;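 on Inhibition level, PTK2B: level 0 no or unclear inhibition to Level 2 substantial inhibition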;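 on Inhibition level, STK13: level 0 no or unclear inhibition to Level 2 substantial inhibition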;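 on Inhibition level, TLK2: level 0 none or unclear Level 1 marginal Level 2 substantial inhibition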
Sequence of plurality of kinases (Table 5) (Homo sapiens, UniProt P11309) (P11309 whole entry): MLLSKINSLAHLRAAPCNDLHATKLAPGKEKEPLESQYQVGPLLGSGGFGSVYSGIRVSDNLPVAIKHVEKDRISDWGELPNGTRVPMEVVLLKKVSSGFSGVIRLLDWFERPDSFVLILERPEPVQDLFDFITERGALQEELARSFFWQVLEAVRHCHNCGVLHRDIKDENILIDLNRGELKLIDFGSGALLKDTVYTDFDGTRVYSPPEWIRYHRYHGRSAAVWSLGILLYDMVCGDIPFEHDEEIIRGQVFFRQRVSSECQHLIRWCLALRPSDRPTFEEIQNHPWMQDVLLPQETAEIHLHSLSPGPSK

[2] = target: plurality of kinases (Table 5) (Homo sapiens, UniProt P07949); assay: as above; format: biochemical; conditions: plate B7
Sequence of plurality of kinases (Table 5) (Homo sapiens, UniProt P07949) (P07949 29-1114): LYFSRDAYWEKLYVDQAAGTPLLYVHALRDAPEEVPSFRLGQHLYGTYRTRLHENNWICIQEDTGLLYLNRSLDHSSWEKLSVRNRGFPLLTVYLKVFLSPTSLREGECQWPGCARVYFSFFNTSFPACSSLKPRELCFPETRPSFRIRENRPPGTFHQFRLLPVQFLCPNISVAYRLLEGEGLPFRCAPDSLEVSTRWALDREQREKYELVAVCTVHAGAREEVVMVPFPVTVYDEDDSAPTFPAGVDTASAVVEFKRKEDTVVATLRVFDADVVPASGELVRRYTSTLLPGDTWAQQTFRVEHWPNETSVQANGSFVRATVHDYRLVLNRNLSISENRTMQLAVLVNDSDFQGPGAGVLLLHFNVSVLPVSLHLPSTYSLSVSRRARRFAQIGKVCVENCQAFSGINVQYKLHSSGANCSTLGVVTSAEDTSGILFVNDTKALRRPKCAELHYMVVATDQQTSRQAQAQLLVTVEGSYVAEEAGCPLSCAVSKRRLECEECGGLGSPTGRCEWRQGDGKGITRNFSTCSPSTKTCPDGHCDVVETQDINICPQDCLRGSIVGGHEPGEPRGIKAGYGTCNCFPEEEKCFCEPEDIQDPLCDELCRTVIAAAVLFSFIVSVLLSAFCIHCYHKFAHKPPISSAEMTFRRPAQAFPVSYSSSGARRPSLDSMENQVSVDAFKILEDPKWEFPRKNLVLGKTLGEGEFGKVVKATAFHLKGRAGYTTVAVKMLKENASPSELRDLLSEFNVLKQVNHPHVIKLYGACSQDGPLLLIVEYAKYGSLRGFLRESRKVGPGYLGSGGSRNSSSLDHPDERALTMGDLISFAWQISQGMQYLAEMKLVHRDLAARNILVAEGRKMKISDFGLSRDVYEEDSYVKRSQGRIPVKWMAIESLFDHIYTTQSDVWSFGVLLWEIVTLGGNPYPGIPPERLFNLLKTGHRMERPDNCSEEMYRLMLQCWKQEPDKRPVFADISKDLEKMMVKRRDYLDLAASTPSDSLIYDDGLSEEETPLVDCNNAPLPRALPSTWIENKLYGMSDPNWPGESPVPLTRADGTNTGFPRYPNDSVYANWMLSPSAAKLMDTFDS

[3] = target: plurality of kinases (Table 5) (Homo sapiens, UniProt Q05655); assay: as above; format: biochemical; conditions: plate B2
Sequence of plurality of kinases (Table 5) (Homo sapiens, UniProt Q05655) (Q05655 whole entry): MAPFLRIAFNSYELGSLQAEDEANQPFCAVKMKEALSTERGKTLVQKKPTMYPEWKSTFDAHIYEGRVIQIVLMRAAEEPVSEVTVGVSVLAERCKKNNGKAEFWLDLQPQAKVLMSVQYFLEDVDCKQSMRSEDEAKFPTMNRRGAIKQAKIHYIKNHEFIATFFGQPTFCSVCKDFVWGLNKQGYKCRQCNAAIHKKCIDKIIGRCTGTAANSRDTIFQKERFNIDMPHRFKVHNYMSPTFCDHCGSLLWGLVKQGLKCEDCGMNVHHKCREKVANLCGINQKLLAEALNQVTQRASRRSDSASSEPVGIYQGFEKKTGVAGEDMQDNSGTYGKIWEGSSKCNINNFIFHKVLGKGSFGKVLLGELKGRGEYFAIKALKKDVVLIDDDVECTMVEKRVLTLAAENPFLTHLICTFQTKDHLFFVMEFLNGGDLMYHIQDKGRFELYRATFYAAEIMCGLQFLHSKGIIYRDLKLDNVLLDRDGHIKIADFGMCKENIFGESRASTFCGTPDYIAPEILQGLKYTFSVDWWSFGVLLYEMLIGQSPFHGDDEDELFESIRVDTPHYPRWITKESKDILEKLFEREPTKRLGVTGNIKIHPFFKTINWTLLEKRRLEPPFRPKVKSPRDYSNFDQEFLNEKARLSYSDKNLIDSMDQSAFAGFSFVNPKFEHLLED

[4] = target: plurality of kinases (Table 5) (Homo sapiens, UniProt Q86UE8); assay: as above; format: biochemical; conditions: plate C8
[5] = target: plurality of kinases (Table 5) (Homo sapiens, UniProt Q14289); assay: as above; format: biochemical; conditions: plate G5
Sequence of plurality of kinases (Table 5) (Homo sapiens, UniProt Q14289) (Q14289 whole entry): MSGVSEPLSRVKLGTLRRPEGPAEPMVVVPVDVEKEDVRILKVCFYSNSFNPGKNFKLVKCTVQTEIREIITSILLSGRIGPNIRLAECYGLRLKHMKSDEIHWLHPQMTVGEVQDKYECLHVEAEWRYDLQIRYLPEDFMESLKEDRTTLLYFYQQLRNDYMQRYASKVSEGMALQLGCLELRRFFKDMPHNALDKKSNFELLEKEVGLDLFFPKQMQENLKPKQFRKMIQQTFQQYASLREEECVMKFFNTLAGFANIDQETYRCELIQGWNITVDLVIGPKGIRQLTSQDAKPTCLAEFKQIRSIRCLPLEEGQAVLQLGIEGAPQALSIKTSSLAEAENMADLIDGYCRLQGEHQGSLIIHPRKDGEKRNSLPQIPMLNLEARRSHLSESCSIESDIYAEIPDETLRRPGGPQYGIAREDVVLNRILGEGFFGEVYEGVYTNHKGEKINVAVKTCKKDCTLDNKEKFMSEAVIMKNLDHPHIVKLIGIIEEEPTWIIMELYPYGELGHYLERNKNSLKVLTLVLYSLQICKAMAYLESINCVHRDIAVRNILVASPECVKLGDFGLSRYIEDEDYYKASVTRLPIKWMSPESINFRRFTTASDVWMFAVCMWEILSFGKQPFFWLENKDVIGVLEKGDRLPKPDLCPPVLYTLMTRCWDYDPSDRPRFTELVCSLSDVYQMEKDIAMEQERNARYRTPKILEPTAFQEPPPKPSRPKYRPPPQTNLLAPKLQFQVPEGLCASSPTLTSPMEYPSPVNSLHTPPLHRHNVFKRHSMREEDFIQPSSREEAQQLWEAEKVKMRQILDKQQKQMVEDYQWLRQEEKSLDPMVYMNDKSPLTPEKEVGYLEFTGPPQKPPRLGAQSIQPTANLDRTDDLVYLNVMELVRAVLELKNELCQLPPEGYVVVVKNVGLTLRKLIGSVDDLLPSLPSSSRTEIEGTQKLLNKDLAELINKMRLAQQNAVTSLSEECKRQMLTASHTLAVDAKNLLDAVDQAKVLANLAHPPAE

[6] = target: plurality of kinases (Table 5) (Homo sapiens, UniProt P68400); assay: as above; format: biochemical
Sequence of plurality of kinases (Table 5) (Homo sapiens, UniProt P68400) (P68400 whole entry): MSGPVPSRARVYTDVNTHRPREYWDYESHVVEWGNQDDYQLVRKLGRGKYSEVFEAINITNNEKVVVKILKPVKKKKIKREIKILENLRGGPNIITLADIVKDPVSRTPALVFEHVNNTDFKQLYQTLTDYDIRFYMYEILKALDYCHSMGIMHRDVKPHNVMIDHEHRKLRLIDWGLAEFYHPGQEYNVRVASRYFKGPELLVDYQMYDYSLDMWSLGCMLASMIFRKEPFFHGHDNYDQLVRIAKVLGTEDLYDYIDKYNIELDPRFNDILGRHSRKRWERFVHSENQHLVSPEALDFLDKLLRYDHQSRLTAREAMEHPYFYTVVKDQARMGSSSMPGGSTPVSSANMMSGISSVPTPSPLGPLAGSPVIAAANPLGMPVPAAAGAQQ

[7] = target: T1, plurality of kinases (Table 5) (Homo sapiens, UniProt Q12866); assay: as above; format: biochemical; conditions: plate B11; inhibitor 100 uM
T1 sequence (Q12866 21-999): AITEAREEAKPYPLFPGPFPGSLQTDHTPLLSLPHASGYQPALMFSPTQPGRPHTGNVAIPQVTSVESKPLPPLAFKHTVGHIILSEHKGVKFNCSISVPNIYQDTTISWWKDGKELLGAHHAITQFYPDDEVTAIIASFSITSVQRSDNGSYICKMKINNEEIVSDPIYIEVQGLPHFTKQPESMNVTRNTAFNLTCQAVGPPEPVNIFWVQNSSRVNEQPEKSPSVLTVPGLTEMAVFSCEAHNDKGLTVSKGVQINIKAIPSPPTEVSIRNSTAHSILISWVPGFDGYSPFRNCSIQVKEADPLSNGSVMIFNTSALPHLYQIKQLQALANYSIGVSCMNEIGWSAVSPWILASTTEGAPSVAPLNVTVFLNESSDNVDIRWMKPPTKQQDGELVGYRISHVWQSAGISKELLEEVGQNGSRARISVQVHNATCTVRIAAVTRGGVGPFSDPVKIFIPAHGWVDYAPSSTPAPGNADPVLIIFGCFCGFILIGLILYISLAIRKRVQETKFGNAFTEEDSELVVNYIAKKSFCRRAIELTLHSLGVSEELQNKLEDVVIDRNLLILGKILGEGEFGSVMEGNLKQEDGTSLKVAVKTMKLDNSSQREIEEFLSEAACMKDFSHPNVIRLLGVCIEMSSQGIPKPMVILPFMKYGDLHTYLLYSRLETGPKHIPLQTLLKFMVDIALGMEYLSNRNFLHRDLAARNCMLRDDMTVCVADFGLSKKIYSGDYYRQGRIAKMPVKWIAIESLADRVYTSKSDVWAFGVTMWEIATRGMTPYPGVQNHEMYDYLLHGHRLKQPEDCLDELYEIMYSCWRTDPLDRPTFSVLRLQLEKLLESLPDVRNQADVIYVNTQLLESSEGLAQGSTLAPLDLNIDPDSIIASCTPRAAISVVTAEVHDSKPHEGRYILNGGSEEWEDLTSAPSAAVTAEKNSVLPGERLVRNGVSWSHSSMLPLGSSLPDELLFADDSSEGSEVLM

[8] = target: T2, plurality of kinases (Table 5) (Homo sapiens, UniProt Q9UQB9); assay: as above; format: biochemical; conditions: plate G11; inhibitor 100 uM
T2 sequence (Q9UQB9 1-309): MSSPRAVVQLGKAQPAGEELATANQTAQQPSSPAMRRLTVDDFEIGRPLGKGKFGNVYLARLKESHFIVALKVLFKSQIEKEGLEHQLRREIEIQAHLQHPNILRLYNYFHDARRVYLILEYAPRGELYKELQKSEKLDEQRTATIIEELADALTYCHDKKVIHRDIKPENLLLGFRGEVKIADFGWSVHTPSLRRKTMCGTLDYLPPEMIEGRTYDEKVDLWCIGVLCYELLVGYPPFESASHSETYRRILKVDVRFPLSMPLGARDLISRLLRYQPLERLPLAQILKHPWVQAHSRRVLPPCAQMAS

[9] = target: plurality of kinases (Table 5) (Homo sapiens, UniProt P00519); assay: as above; format: biochemical; conditions: plate B6
Sequence of plurality of kinases (Table 5) (Homo sapiens, UniProt P00519) (P00519 whole entry): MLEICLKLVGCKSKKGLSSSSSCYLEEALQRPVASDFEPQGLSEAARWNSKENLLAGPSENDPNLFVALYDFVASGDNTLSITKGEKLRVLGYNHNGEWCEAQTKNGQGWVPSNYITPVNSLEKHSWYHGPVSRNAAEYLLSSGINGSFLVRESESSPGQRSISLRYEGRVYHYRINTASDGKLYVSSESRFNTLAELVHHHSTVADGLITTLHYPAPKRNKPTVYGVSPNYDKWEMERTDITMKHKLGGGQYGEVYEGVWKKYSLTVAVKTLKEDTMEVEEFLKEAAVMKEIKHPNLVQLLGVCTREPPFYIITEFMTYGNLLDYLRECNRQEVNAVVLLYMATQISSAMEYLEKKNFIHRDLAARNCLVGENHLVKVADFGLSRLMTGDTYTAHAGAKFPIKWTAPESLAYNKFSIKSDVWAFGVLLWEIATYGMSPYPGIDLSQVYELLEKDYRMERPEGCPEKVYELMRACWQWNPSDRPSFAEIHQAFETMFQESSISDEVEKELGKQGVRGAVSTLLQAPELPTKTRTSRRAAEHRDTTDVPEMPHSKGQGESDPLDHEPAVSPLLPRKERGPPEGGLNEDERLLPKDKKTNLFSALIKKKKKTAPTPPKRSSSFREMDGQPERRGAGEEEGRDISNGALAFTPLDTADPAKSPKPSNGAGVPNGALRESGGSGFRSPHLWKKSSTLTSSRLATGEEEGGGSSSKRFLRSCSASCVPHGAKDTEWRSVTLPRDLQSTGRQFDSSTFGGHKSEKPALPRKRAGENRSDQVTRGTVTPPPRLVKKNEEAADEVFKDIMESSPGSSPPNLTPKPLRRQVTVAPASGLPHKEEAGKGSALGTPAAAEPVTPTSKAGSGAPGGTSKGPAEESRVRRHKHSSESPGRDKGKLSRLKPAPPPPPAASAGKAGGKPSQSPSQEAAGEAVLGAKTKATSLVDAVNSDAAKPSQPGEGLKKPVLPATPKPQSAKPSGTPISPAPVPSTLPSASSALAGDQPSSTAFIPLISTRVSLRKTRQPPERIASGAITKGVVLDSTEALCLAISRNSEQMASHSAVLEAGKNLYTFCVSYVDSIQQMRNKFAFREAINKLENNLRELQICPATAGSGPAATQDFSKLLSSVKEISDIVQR

[10] = target: T3, plurality of kinases (Table 5) (Homo sapiens, UniProt Q08881); assay: as above; format: biochemical; conditions: plate E4; inhibitor 100 uM
T3 sequence (Q08881 1-620): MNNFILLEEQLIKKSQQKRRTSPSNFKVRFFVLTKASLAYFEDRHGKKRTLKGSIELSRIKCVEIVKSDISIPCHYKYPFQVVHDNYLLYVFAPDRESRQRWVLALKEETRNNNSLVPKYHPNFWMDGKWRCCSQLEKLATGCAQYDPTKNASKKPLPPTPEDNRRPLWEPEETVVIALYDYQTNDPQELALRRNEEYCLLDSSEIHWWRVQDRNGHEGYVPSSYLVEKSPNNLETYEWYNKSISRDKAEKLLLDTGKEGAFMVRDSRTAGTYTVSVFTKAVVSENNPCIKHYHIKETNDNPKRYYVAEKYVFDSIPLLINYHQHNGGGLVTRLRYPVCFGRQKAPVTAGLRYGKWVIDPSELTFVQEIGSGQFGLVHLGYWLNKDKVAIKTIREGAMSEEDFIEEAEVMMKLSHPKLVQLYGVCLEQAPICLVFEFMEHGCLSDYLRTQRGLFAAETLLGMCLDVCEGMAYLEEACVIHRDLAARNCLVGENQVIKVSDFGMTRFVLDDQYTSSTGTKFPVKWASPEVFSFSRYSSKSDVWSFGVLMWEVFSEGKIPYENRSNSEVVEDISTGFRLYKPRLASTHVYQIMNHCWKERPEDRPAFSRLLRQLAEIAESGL

39 kinases (Table 4) = conditions: known general specificities of the inhibitors, Table 3; cited from earlier work

Row | Inhibition level, PIM1 ([1]; plate C2, inhibitor 100 uM) | Inhibition level, RET ([2]; inhibitor 100 uM) | Inhibition level, CSNK2A1 ([6]; plate D9, inhibitor 100 uM) | SMILES | Inhibition level, PRKCD ([3]; inhibitor 100 uM) | Inhibition level, TLK2 ([4]; inhibitor 100 uM) | Inhibition level, PTK2B ([5]; inhibitor 100 uM) | Inhibition level, MERTK [7] | Inhibition level, STK13 [8] | Inhibition level, ABL1 ([9]; inhibitor 100 uM) | Inhibition level, ITK [10] | General Specificity (known) (39 kinases (Table 4)) | also measured
1 | 2 | 2 | 2 | O=c1c(-c2ccc(O)cc2)coc2cc(O)cc(O)c12 [Genistein] | 0 | 2 | 2 | 2 | 2 | 0 | 2 | tyrosine | Inhibition level, PIM1 ([1]; plate C2, Genistein <3.7 mM): 0; Inhibition level, RET ([2]; Genistein, conc. not given): 0; Inhibition level, PRKCD ([3]; Genistein, conc. not given): 0; Inhibition level, TLK2 ([4]; Genistein <3.7 mM): 0; Inhibition level, CSNK2A1 ([6]; plate D9, Genistein, conc. not given): 0; Inhibition level, ABL1 ([9]; Genistein, conc. not given): 0
2 | 2 | 0 | 0 | O=S(=O)(NCCNC/C=C/c1ccc(Br)cc1)c1cccc2cnccc12 [H-89] | 1 | 2 | 1 | 2 | 1 | 0 | 1 | serine/threonine | –
3 | 2 | 2 | 2 | CC(C)(C)n1nc(-c2ccc(Cl)cc2)c2c(N)ncnc21 [PP2] | 0 | 2 | 2 | 2 | 2 | – | 2 | tyrosine | –
4 | – | – | – | O=c1c(O)c(-c2ccc(O)c(O)c2)oc2cc(O)cc(O)c12 [Quercetin] | 0 | 0 | 1 | 1 | 2 | – | 0 | – | –
5 | 0 | 0 | 2 | Cn1cc(C2=C(c3cn(CCCSC(=N)N)c4ccccc34)C(=O)NC2=O)c2ccccc21 [Ro-31-8220] | 0 | 1 | 2 | 2 | 2 | 2 | 2 | serine/threonine | Inhibition level, PIM1 ([1]; plate C2, Ro-31-8220 90 uM): 2; Inhibition level, RET ([2]; Ro-31-8220, conc. not given): 2; Inhibition level, PRKCD ([3]; Ro-31-8220, conc. not given): 2; Inhibition level, TLK2 ([4]; Ro-31-8220 90 uM): 2; Inhibition level, PTK2B ([5]; Ro-31-8220 90 uM): 0; Inhibition level, CSNK2A1 ([6]; plate D9, Ro-31-8220, conc. not given): 0; Inhibition level, ABL1 ([9]; Ro-31-8220, conc. not given): 0
6 | – | – | – | CN[C@@H]1C[C@H]2O[C@@](C)([C@@H]1OC)n1c3ccccc3c3c4c(c5c6ccccc6n2c5c31)C(=O)NC4 [Staurosporine] | – | – | – | – | – | – | – | broad | Inhibition level, PIM1 [1]: 2; Inhibition level, TLK2 ([4]; Staurosporine 21.5 uM): 2; Inhibition level, PTK2B ([5]; Staurosporine 21.5 uM): 0; Inhibition level, CSNK2A1 [6]: 2

Row | SMILES | Inhibition level, PIM1 ([1]; plate C2, inhibitor 100 uM) | Inhibition level, RET ([2]; inhibitor 100 uM) | Inhibition level, CSNK2A1 ([6]; plate D9, inhibitor 100 uM) | Inhibition level, PRKCD ([3]; inhibitor 100 uM) | Inhibition level, TLK2 ([4]; inhibitor 100 uM) | Inhibition level, PTK2B ([5]; inhibitor 100 uM) | Inhibition level, MERTK [7] | Inhibition level, STK13 [8] | Inhibition level, ABL1 ([9]; inhibitor 100 uM) | Inhibition level, ITK [10] | General Specificity (known) (39 kinases (Table 4)) | also measured
7 | N#C/C(=C/c1ccc(O)c(O)c1)C(=O)NCc1ccccc1 [AG 490] | 2 | 2 | 2 | 0 | 2 | 2 | 2 | 2 | 0 | 1 | tyrosine | –
8 | COc1cc2ncnc(Nc3cccc(Cl)c3)c2cc1OC [AG 1478] | 1 | 2 | 2 | 0 | 2 | 2 | 2 | 1 | 1 | 1 | – | –
9 | CC(=O)c1c(O)c(C)c(O)c(Cc2c(O)c3c(c(C(=O)/C=C/c4ccccc4)c2O)OC(C)(C)C=C3)c1O [Rottlerin (Mallotoxin)] | 2 | 0 | 2 | 0 | 2 | 2 | 2 | 1 | 0 | 1 | – | –
